Experimental findings from ChEMBL document CHEMBL3813646, “Small molecules that target phosphorylation dependent protein-protein interaction” (Bioorg Med Chem, 2016) are described below.

Test [1] addresses T1, 14-3-3 protein beta/alpha (Homo sapiens, UniProt P31946).
T1 sequence (P31946 whole entry): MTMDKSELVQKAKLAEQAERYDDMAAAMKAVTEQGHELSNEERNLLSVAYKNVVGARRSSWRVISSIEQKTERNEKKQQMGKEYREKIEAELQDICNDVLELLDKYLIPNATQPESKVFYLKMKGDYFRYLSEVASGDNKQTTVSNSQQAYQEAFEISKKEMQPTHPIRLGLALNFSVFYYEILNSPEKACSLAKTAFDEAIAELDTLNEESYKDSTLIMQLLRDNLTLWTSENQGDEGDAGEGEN
Nature of the test: Binding affinity to GST-tagged 125I-labelled 14-3-3beta (unknown origin) expressed in Escherichia coli by solid phase assay.

Test [2] concerns the target T2, 14-3-3 protein theta (Homo sapiens, UniProt P27348).
T2 sequence (P27348 whole entry): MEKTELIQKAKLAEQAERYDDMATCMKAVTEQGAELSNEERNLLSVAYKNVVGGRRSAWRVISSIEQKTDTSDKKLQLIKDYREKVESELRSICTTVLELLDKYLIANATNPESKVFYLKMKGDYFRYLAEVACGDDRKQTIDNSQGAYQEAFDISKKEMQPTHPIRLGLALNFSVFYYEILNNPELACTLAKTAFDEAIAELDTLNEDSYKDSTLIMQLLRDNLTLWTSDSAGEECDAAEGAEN
Nature of the test: Binding affinity to GST-tagged 125I-labelled full length human 14-3-3tau expressed in Escherichia coli by solid phase assay.

Test [3] has as its target T3, 14-3-3 protein eta (Homo sapiens, UniProt Q04917).
T3 sequence (Q04917 whole entry): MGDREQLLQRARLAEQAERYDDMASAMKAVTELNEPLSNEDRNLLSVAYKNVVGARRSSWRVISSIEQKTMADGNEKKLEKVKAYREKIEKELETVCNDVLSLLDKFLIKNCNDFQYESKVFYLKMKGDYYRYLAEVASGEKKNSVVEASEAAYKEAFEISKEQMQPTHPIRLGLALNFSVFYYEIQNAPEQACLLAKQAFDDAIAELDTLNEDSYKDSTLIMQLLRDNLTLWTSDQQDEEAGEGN
Nature of the test: Binding affinity to GST-tagged 125I-labelled 14-3-3eta (unknown origin) expressed in Escherichia coli by solid phase assay.

For test [4], the target named is T4, 14-3-3 protein sigma (Homo sapiens) (UniProt P31947).
T4 sequence (whole entry): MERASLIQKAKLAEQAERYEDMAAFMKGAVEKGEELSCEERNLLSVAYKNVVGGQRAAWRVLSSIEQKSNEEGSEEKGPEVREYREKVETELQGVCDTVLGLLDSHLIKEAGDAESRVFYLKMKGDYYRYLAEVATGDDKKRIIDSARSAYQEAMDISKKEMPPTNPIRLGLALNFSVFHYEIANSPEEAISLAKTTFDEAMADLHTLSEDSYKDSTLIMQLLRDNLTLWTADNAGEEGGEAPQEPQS
In words: Induction of human 14-3-3sigma binding to TASK-3 using FAM-370RRK-pS-V374-COOH by fluorescence polarization assay relative to control. (In general: In fluorescence polarisation assays a small probe gives low polarisation when free and higher when bound to something large.)

In test [5] the target is Serine/threonine-protein kinase PLK1 (Homo sapiens, UniProt P53350). Nature of the test: Inhibition of human Plk1 PBD (326 to 603 residues) using 5-carboxyfluorescein-GPMQSpTPLNG-OH as substrate incubated for 1 hr prior to addition of substrate by fluorescence polarization assay.
Sequence of Serine/threonine-protein kinase PLK1 (P53350 whole entry, the tested form may be a part): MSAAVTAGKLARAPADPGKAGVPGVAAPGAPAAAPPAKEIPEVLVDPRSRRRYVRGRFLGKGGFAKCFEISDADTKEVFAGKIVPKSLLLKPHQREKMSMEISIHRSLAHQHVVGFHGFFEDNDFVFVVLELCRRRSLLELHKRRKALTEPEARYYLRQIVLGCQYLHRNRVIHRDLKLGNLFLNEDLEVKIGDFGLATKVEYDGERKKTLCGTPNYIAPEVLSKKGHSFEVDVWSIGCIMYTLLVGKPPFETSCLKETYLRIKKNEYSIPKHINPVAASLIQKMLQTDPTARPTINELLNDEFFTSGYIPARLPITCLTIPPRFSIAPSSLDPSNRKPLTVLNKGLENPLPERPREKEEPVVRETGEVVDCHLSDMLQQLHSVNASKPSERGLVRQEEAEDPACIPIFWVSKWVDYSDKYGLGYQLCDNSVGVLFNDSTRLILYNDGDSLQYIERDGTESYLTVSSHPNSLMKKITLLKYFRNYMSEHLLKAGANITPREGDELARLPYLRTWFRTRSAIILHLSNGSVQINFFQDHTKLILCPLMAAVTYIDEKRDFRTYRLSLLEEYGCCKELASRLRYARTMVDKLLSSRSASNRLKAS
For test [6], the target named is Serine/threonine-protein kinase PLK2 (Homo sapiens, UniProt Q9NYY3). Nature of the test: Inhibition of human Plk2 PBD (355 to 685 residues) using 5-carboxyfluorescein-GPMQTSpTPKNG-OH as substrate incubated for 1 hr prior to addition of substrate by fluorescence polarization assay.
Sequence of Serine/threonine-protein kinase PLK2 (Q9NYY3 whole entry, the tested form may be a part): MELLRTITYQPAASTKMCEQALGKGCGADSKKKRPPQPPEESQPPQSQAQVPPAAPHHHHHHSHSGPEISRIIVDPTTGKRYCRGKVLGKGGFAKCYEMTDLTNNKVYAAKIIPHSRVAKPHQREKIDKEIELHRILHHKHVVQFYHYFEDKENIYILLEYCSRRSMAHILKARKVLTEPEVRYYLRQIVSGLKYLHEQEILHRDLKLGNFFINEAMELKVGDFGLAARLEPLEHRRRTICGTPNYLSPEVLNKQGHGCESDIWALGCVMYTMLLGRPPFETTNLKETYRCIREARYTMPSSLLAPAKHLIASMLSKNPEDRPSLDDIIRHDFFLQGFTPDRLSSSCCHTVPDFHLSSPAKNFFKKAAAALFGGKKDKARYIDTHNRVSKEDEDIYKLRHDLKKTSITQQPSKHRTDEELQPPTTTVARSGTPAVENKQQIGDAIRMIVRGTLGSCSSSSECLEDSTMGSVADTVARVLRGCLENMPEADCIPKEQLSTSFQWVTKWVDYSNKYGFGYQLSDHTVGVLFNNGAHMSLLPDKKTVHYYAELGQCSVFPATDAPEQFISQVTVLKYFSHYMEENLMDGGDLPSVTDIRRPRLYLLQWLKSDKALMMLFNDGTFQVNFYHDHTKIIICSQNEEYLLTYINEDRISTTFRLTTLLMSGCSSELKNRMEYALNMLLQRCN
Test [7] concerns the target Serine/threonine-protein kinase PLK3 (Homo sapiens, UniProt Q9H4B4). In words: Inhibition of human Plk3 PBD (335 to 646 residues) using 5-carboxyfluorescein-GPLATSpTPKNG-OH as substrate incubated for 1 hr prior to addition of substrate by fluorescence polarization assay.
In test [8] the target is Serine/threonine-protein kinase Chk2 (Homo sapiens) (UniProt O96017). In words: Inhibition of Chk2 FHA (1 to 225 residues) (unknown origin) using 5-carboxyfluorescein-GHFDpTYLI-RR-OH as substrate at 40 uM incubated for 1 hr prior to addition of substrate by fluorescence polarization assay.
Sequence of Serine/threonine-protein kinase Chk2 (Homo sapiens) (O96017 whole entry, the tested form may be a part): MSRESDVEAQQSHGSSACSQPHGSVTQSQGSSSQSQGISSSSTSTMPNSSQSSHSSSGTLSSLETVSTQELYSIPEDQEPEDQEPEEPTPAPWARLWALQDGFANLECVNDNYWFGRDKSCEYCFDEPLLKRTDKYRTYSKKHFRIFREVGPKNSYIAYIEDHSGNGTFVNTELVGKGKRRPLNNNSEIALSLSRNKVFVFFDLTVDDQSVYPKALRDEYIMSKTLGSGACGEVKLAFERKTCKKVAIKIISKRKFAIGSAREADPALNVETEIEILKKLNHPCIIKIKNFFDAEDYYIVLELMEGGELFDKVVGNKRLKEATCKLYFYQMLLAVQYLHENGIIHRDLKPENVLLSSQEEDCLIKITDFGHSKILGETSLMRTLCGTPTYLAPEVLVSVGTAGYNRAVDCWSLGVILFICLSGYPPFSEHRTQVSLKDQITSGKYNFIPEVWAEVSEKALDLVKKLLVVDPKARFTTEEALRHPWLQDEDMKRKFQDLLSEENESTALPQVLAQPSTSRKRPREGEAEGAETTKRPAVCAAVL
Test [9] concerns the target Peptidyl-prolyl cis-trans isomerase NIMA-interacting 1 (Homo sapiens) (UniProt Q13526). Nature of the test: Inhibition of Pin1 (1 to 162 residues) (unknown origin) using 5-carboxyfluorescein-GHFDpTYLI-RR-OH as substrate at 40 uM incubated for 1 hr prior to addition of substrate by fluorescence polarization assay.
In test [10] the target is T5, 14-3-3 protein sigma (Homo sapiens, UniProt P31947).
T5 sequence (P31947 whole entry): T4 sequence (whole entry)
Nature of the test: Inhibition of 14-3-3sigma (unknown origin) assessed as reduction in 14-3-3sigma- mediated increase in MMP1 mRNA by cell based assay.

Residues, ends and D or L forms follow the SMILES beside them.

Sequence of Peptidyl-prolyl cis-trans isomerase NIMA-interacting 1 (Homo sapiens) (Q13526 whole entry, the tested form may be a part): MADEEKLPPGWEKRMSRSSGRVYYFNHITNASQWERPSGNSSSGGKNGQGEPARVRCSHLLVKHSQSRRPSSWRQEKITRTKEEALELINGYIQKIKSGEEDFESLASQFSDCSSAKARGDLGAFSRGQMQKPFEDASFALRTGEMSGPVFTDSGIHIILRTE
Sequence of Serine/threonine-protein kinase PLK3 (Q9H4B4 whole entry, the tested form may be a part): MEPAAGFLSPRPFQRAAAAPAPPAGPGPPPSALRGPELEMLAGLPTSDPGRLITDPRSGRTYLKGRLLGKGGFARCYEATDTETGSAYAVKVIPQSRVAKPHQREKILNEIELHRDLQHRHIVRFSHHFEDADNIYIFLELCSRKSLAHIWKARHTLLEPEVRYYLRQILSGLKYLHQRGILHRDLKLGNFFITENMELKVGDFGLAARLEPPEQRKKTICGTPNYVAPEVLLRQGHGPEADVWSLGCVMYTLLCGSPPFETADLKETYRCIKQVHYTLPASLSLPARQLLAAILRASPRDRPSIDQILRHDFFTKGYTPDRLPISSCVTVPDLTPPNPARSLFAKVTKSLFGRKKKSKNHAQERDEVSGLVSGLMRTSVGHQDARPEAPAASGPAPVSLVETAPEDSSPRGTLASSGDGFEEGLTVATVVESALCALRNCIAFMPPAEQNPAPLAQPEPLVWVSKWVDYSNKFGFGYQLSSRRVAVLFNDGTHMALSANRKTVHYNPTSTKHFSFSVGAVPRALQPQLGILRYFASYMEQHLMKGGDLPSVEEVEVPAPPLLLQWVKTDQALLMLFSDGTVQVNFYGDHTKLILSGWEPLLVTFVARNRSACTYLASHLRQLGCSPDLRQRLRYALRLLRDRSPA

In the case of `CSCC[C@H](NC(=O)[C@H](CC(N)=O)NC(=O)[C@H](C)NC(=O)[C@H](CCC(=O)O)NC(=O)[C@H](CC(C)C)NC(=O)[C@H](CC(=O)O)NC(=O)[C@H](CC(C)C)NC(=O)[C@H](Cc1c[nH]c2ccccc12)NC(=O)[C@H](CO)NC(=O)[C@H](CC(C)C)NC(=O)[C@H](CC(=O)O)NC(=O)[C@H](CCCNC(=N)N)NC(=O)[C@@H]1CCCN1C(=O)[C@@H](NC(=O)[C@H](CS)NC(=O)[C@H](Cc1cnc[nH]1)NC(=O)[C@@H]1CCCN1)C(C)C)C(=O)N[C@@H](CS)C(=O)N[C@@H](CC(C)C)C(=O)N1CCC[C@H]1C(=O)O` (H-PHCVPRDLSWLDLEANMCLP-OH), the dissociation constant (Kd) in test [1], in [2] and in test [3] was 70 nM throughout.
`COC[C@H]1CC[C@@H]2/C1=C\[C@]1(C)C(=C(C(C)C)[C@@H]3CCO[C@@H]31)[C@@H](O[C@H]1O[C@@H]3COC(C)(C)O[C@H]3[C@H](O)[C@H]1O)[C@H](O)[C@@H]2C` displayed a fold change (FC) in test [4] of 19.
As for `COc1ccc(Br)cc1/C=c1\sc2nc(=O)c(C)nn2c1=O`, the IC50 (as a rule, the point on the concentration scale where inhibition reaches its midpoint) in test [5] was 3200 nM; in test [6], 1700 nM; in test [7] it was 3000 nM. Also, the inhibition (as a rule, the share of the control response that was lost under treatment) in test [8] was 35%; in [9] it was 32%.
On to `O=C(COc1ccccc1P(=O)(O)O)Nc1cccc(Cl)c1Cl`, for which the IC50 in test [10] turned out to be 5000 nM.
